Data published in patent publication US12427134B2, “Methods of reducing the risk of cardiovascular events in a subject with atrial fibrillation and/or atrial flutter” (priority 2019, dated 2025).

Tests used:
[1] = system: patients receiving icosapent ethyl therapy; assay: Postmarket safety analysis of icosapent ethyl (VASCEPA); assay type: in vivo, human
Text: Over 320,000 patients are currently receiving icosapent ethyl (referenced interchangeably with AMR101 or VASCEPA®) therapy. With over 7 years of postmarket experience, there have been no signals necessitating a label change and no actions taken for safety reasons. Of the patients undergoing treatment with icosapent ethyl, a total of 1,204 unique adverse events (AEs) have been reported. However, there have been no signals of atrial fibrillation and flutter identified in the postmarket reports.

[2] = system: hypertriglyceridemic patients with cardiovascular disease or at high risk for cardiovascular disease; settings: human, in vivo
Text: Compliance Control: Unless clear contraindications arise, patients were strongly encouraged to adhere to their treatment regimen with the study drug for the duration of the trial. Any interruptions of therapy were, if possible, brief (e.g., <4 weeks) and only for clinically indicated reasons, such as adverse events. Discontinuations were discouraged as much as possible. Any discontinuations were based on compelling clinical reasons. For every patient, an assessment of compliance to the study drug treatment regimen was obtained at each scheduled visit. Study medication was dispensed in amounts exceeding the amount required for the study. Patients were instructed to return all unused study medication at the next visit. Compliance to the study drug regimen was evaluated at each visit by counting unused capsules. Discrepancies were evaluated and discussed with each patient to assess compliance. […] At the end of the study, the final study medication compliance was determined by unused capsule count. […]
Occurrence of an outcome event according to the judgment of the investigator was not considered a valid reason for study drug discontinuation. Patients whose treatment with study medication was discontinued early, and had not withdrawn consent, stayed in the study and were monitored until the end of the study. […]

[3] = system: hypertriglyceridemic patients with cardiovascular disease or at high risk for cardiovascular disease; assay: REDUCE-IT: post hoc analyses of primary + risk and key secondary + risk composite endpoints (adding atrial fibrillation/flutter and bleeding); assay type: in vivo, human; settings: ITT

CC/C=C\C/C=C\C/C=C\C/C=C\C/C=C\CCCC(=O)OCC [AMR101, eicosapentaenoic acid ethyl ester] was tested, and the “Individual serious AEs” value ([1]; human, in vivo) was 69, the “Serious and unexpected AE reports” value ([1]; human, in vivo) was 48 and the “Unique adverse events (AEs) reported” value ([1]; human, in vivo) was 1,204. For the same molecule, the “Unique nonserious AEs” value ([1]; human, in vivo) was 1,156, the “Reports with fatal outcomes” value ([1]; postmarket) was “Four” and the “Early study drug discontinuation: adverse event” value [2] was 9.2%. For the same molecule, the “AFib/AFlutter + MI + Stroke + Cardiac Arrest + Sudden Cardiac Death, Rate/1000 pt yrs” value [3] was 29.4 /1000 pt yrs, the “Key Secondary + AFib/AFlutter, Rate/1000 pt yrs” value [3] was 33.1 /1000 pt yrs and the “Key Secondary + Serious Bleeding, Rate/1000 pt yrs” value [3] was 32.1 /1000 pt yrs. For the same molecule, the “Primary + AFib/AFlutter + Serious Bleeding, Rate/1000 pt yrs” value [3] was 53.5 /1000 pt yrs, the “Primary + AFib/AFlutter, Rate/1000 pt yrs” value [3] was 49.0 /1000 pt yrs and the “Primary + Serious Bleeding, Rate/1000 pt yrs” value [3] was 48.2 /1000 pt yrs. For the same molecule, the “AFib/AFlutter + MI + Stroke + Cardiac Arrest + Sudden Cardiac Death, subjects with event” value ([3]; N = 4089) was 491, the “AFib/AFlutter + MI + Stroke + Cardiac Arrest + Sudden Cardiac Death, subjects with event (%)” value ([3]; N = 4089) was 12.0% and the “Key Secondary + AFib/AFlutter + Serious Bleeding, subjects with event” value ([3]; N = 4089) was 625. For the same molecule, the “Key Secondary + AFib/AFlutter, subjects with event” value ([3]; N = 4089) was 552, the “Key Secondary + AFib/AFlutter, subjects with event (%)” value ([3]; N = 4089) was 13.5% and the “Key Secondary + Serious Bleeding, subjects with event” value ([3]; N = 4089) was 539. The “Key Secondary + Serious Bleeding, subjects with event (%)” value ([3]; N = 4089) was 13.2%, the “Primary + AFib/AFlutter + Serious Bleeding, subjects with event” value ([3]; N = 4089) was 850 and the “Primary + AFib/AFlutter + Serious Bleeding, subjects with event (%)” value ([3]; N = 4089) was 20.8%. The “Primary + AFib/AFlutter, subjects with event” value ([3]; N = 4089) was 785, the “Primary + AFib/AFlutter, subjects with event (%)” value ([3]; N = 4089) was 19.2% and the “Primary + Serious Bleeding, subjects with event” value ([3]; N = 4089) was 775. The “Primary + Serious Bleeding, subjects with event (%)” value ([3]; N = 4089) was 19.0%, the “AFib/AFlutter + MI + Stroke + Cardiac Arrest + Sudden Cardiac Death, HR (95% CI)” value ([3]; vs placebo) was 0.789 (0.701, 0.889) and the “Key Secondary + AFib/AFlutter + Serious Bleeding, HR (95% CI)” value ([3]; vs placebo) was 0.855 (0.768, 0.952). For the same molecule, the “Key Secondary + AFib/AFlutter, HR (95% CI)” value ([3]; vs placebo) was 0.818 (0.731, 0.916), the “Key Secondary + Serious Bleeding, HR (95% CI)” value ([3]; vs placebo) was 0.789 (0.704, 0.884) and the “Primary + AFib/AFlutter + Serious Bleeding, HR (95% CI)” value ([3]; vs placebo) was 0.830 (0.757, 0.910). The “Primary + AFib/AFlutter, HR (95% CI)” value ([3]; vs placebo) was 0.803 (0.731, 0.883) and the “Primary + Serious Bleeding, HR (95% CI)” value ([3]; vs placebo) was 0.785 (0.714, 0.863).
